pKd: −log10 of the molar value. The source made the active and inactive calls. The rule behind the calls is not given here.
How the values were obtained:
[1] = target: T1, PA-I galactophilic lectin (Pseudomonas aeruginosa (strain ATCC 15692 / PAO1 / 1C / PRS 101 / LMG12228), UniProt Q05097); test: Binding affinity to Pseudomonas aeruginosa LecA by ITC method
T1 sequence (Q05097 whole entry): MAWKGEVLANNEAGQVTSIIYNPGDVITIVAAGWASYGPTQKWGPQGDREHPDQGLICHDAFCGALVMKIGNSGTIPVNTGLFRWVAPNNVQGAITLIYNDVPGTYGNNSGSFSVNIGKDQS

[2] = tested on: Pseudomonas aeruginosa; test: Antimicrobial activity Pseudomonas aeruginosa PAO1 infected C57BL6/J mouse lung injury model assessed as effect on alveolar-capillary permeability using 5 mM compound pre-treated bacteria for infection; format: functional, organism-based
[3] = tested on: Pseudomonas aeruginosa; test: Inhibition of biofilm formation of Pseudomonas aeruginosa PAO1 at 0.1 to 5 mM after 24 hrs by crystal violet staining; format: functional, organism-based
[4] = tested on: Pseudomonas aeruginosa; test: Inhibition of deltalecA mutant expressing Pseudomonas aeruginosa PAO1 adhesion to human A549 cells <250 uM; format: functional, organism-based
[5] = tested on: Pseudomonas aeruginosa; test: Induction of bacterial aggregation in Pseudomonas aeruginosa PAO1 at 6 to 5000 uM by optical microscopy; format: functional, organism-based
[6] = tested on: Pseudomonas aeruginosa; test: Induction of bacterial aggregation in Pseudomonas aeruginosa PAO1 expressing deltalecB mutant assessed as number of aggregates per 100 uL of PBS cell solution at 100 uM by optical microscopy; format: functional
[7] = tested on: Pseudomonas aeruginosa; test: Antimicrobial activity Pseudomonas aeruginosa PAO1 infected C57BL6/J mouse lung injury model assessed as effect on alveolar-capillary permeability using 1 mM compound pre-treated bacteria for infection; format: functional, organism-based
[8] = tested on: Pseudomonas aeruginosa; test: Induction of bacterial aggregation in Pseudomonas aeruginosa PAO1 expressing deltalecA mutant at 6 to 5000 uM by optical microscopy; format: functional, organism-based
[9] = tested on: Pseudomonas aeruginosa; test: Inhibition of Pseudomonas aeruginosa PAO1 adhesion to human A549 cells 25 to 2500 uM; format: functional
[10] = tested on: Pseudomonas aeruginosa; test: Induction of bacterial aggregation in Pseudomonas aeruginosa PAO1 expressing deltalecB mutant at 6 to 5000 uM by optical microscopy; format: functional, organism-based
[11] = tested on: Pseudomonas aeruginosa; test: Induction of bacterial aggregation in Pseudomonas aeruginosa PAO1 expressing deltalecA mutant assessed as number of aggregates per 100 uL of PBS cell solution at 100 uM by optical microscopy; format: functional, organism-based
[12] = tested on: Pseudomonas aeruginosa; test: Induction of bacterial aggregation in Pseudomonas aeruginosa PAO1 assessed as number of aggregates per 100 uL of PBS cell solution at 100 uM by optical microscopy; format: functional
[13] = tested on: Pseudomonas aeruginosa; test: Induction of filamentous-like and spherical bacterial aggregation in Pseudomonas aeruginosa PAO1 expressing deltalecB mutant at 6 to 6600 uM by optical microscopy; format: functional, organism-based
[14] = tested on: Pseudomonas aeruginosa; test: Inhibition of deltalecA mutant expressing Pseudomonas aeruginosa PAO1 adhesion to human A549 cells 25 to 2500 uM; format: functional, organism-based
[15] = tested on: Pseudomonas aeruginosa; test: Inhibition of biofilm formation of Pseudomonas aeruginosa PAO1 expressing deltalecB mutant at 5 mM after 24 hrs by crystal violet staining; format: functional, organism-based
[16] = Binding affinity to Pseudomonas aeruginosa LecB by ITC method
[17] = tested on: Pseudomonas aeruginosa; test: Inhibition of biofilm formation of Pseudomonas aeruginosa PAO1 at 0.1 mM after 24 hrs by crystal violet staining; format: functional, organism-based
[18] = tested on: Pseudomonas aeruginosa; test: Induction of filamentous-like and spherical bacterial aggregation in Pseudomonas aeruginosa PAO1 at 6 to 6600 uM by optical microscopy; format: functional, organism-based
[19] = tested on: Pseudomonas aeruginosa; test: Inhibition of biofilm formation of Pseudomonas aeruginosa PAO1 at 5 mM after 24 hrs by crystal violet staining; format: functional, organism-based
[20] = tested on: Pseudomonas aeruginosa; test: Antimicrobial activity Pseudomonas aeruginosa PAO1 infected C57BL6/J mouse lung injury model assessed as protection against lung infection using 1 to 5 mM compound pre-treated bacteria for infection; format: functional, organism-based
[21] = tested on: Pseudomonas aeruginosa; test: Antimicrobial activity Pseudomonas aeruginosa PAO1 infected C57BL6/J mouse lung injury model assessed as reduction in alveolar-capillary permeability using 1 mM compound pre-treated bacteria for infection; format: functional
[22] = tested on: Pseudomonas aeruginosa; test: Inhibition of biofilm formation of Pseudomonas aeruginosa PAO1 expressing deltalecA mutant at 5 mM after 24 hrs by crystal violet staining; format: functional, organism-based
[23] = tested on: Pseudomonas aeruginosa; test: Inhibition of deltalecB mutant expressing Pseudomonas aeruginosa PAO1 adhesion to human A549 cells 25 to 2500 uM; format: functional, organism-based
[24] = tested on: Pseudomonas aeruginosa; test: Antimicrobial activity Pseudomonas aeruginosa PAO1 infected C57BL6/J mouse lung injury model assessed as reduction in alveolar-capillary permeability using 5 mM compound pre-treated bacteria for infection; format: functional
[25] = tested on: Pseudomonas aeruginosa; test: Effect on growth of Pseudomonas aeruginosa PAO1 at 0.1 to 5 mM after 24 hrs; format: organism-based; details: 5000 µM
[26] = tested on: Pseudomonas aeruginosa; test: Inhibition of Pseudomonas aeruginosa PAO1 localization at human A549 cell membranes at 250 to 2500 uM by confocal microscopy; format: functional, organism-based
[27] = target: T2, PA-I galactophilic lectin (Pseudomonas aeruginosa (strain ATCC 15692 / PAO1 / 1C / PRS 101 / LMG12228)) (UniProt Q05097); test: Binding affinity to Pseudomonas aeruginosa LecA at 1.5 mM by ITC method
T2 sequence (whole entry): T1 sequence (Q05097 whole entry)

[28] = tested on: Pseudomonas aeruginosa; test: Binding affinity to Pseudomonas aeruginosa LecB at 1.5 mM by ITC method
[29] = tested on: Pseudomonas aeruginosa; test: Induction of filamentous-like and spherical bacterial aggregation in Pseudomonas aeruginosa PAO1 expressing deltalecA mutant at 6 to 6600 uM by optical microscopy; format: functional, organism-based
[30] = tested on: Pseudomonas aeruginosa; test: Inhibition of deltalecA mutant expressing Pseudomonas aeruginosa PAO1 adhesion to human A549 cells 250 to 2500 uM; format: functional, organism-based

SMILES	inhibition [3]	Activity [5]	Activity [6]	Activity [8]	inhibition (INH) [9]	Activity [10]	Activity [11]	Activity [12]	inhibition [15]	pKd [16]	inhibition [22]	also measured
OCc1cn(CCOCCOCCO[C@@H]2O[C@H](CO)[C@H](O)[C@H](O)[C@H]2O)nn1												pKd [1]: 3.82
CO[C@@H]1O[C@H](CO)[C@H](O)[C@H](O)[C@H]1O	inactive	inactive	inactive	inactive	30%	inactive	inactive	inactive				Activity [2]: inactive; inhibition [4]: inactive; Activity [7]: inactive
CO[C@H]1O[C@H](CO)[C@@H](O)[C@H](O)[C@@H]1O			inactive				inactive	inactive				
C[C@@H]1O[C@@H](OCCOCCOCCn2cc(COc3c4cc(C(C)(C)C)cc3Cc3cc(C(C)(C)C)cc(c3OCc3cn(CCOCCOCCO[C@@H]5O[C@@H](C)[C@@H](O)[C@@H](O)[C@@H]5O)nn3)Cc3cc(C(C)(C)C)cc(c3OCc3cn(CCOCCOCCO[C@@H]5O[C@@H](C)[C@@H](O)[C@@H](O)[C@@H]5O)nn3)Cc3cc(C(C)(C)C)cc(c3OCc3cn(CCOCCOCCO[C@@H]5O[C@@H](C)[C@@H](O)[C@@H](O)[C@@H]5O)nn3)C4)nn2)[C@@H](O)[C@H](O)[C@@H]1O			50		90%				Active	7.32	Active	Activity [13]: Active; inhibition [14]: Active; inhibition [17]: inactive; Activity [18]: Active; inhibition [19]: Active; Activity [20]: inactive; inhibition (INH) [21]: 50%; inhibition [23]: inactive; inhibition (INH) [24]: 50%; Activity [25]: Non-toxic; inhibition [26]: Active
CO[C@@H]1O[C@@H](C)[C@@H](O)[C@@H](O)[C@@H]1O	inactive	inactive		inactive	65%	inactive						Activity [2]: inactive; inhibition [14]: Active; Activity [7]: inactive; inhibition [23]: inactive
CC(C)(C)c1cc2c(OCc3cn(CCOCCOCCO[C@@H]4O[C@H](CO)[C@@H](O)[C@H](O)[C@H]4O)nn3)c(c1)Cc1cc(C(C)(C)C)cc(c1OCc1cn(CCOCCOCCO[C@@H]3O[C@H](CO)[C@@H](O)[C@H](O)[C@H]3O)nn1)Cc1cc(C(C)(C)C)cc(c1OCc1cn(CCOCCOCCO[C@@H]3O[C@H](CO)[C@@H](O)[C@H](O)[C@H]3O)nn1)Cc1cc(C(C)(C)C)cc(c1OCc1cn(CCOCCOCCO[C@@H]3O[C@H](CO)[C@@H](O)[C@H](O)[C@H]3O)nn1)C2	inactive		inactive				inactive	inactive	inactive		inactive	Activity [27]: inactive; Activity [28]: inactive
C[C@@H]1O[C@@H](OCCOCCOCCn2cc(CO)nn2)[C@@H](O)[C@H](O)[C@@H]1O										6.52		
CC(C)(C)c1cc2c(OCc3cn(CCOCCOCCO[C@H]4O[C@H](CO)[C@@H](O)[C@H](O)[C@@H]4O)nn3)c(c1)Cc1cc(C(C)(C)C)cc(c1OCc1cn(CCOCCOCCO[C@H]3O[C@H](CO)[C@@H](O)[C@H](O)[C@@H]3O)nn1)Cc1cc(C(C)(C)C)cc(c1OCc1cn(CCOCCOCCO[C@H]3O[C@H](CO)[C@@H](O)[C@H](O)[C@@H]3O)nn1)Cc1cc(C(C)(C)C)cc(c1OCc1cn(CCOCCOCCO[C@H]3O[C@H](CO)[C@@H](O)[C@H](O)[C@@H]3O)nn1)C2			11					70	inactive	5.64	inactive	
C[C@H]1O[C@@H](OCCOCCOCCn2cc(COc3c4cc(C(C)(C)C)cc3Cc3cc(C(C)(C)C)cc(c3OCc3cn(CCOCCOCCO[C@@H]5O[C@H](CO)[C@H](O)[C@H](O)[C@H]5O)nn3)Cc3cc(C(C)(C)C)cc(c3OCc3cn(CCOCCOCCO[C@@H]5O[C@H](CO)[C@H](O)[C@H](O)[C@H]5O)nn3)Cc3cc(C(C)(C)C)cc(c3OCc3cn(CCOCCOCCO[C@@H]5O[C@H](CO)[C@H](O)[C@H](O)[C@H]5O)nn3)C4)nn2)[C@H](O)[C@@H](O)[C@H]1O					70%		inactive		Active		Active	pKd [1]: 6.75; Activity [29]: inactive; inhibition [4]: inactive; inhibition [17]: inactive; Activity [18]: Active; inhibition [19]: Active; Activity [20]: inactive; inhibition (INH) [21]: 50%; inhibition [30]: Active; inhibition (INH) [24]: 50%; Activity [25]: Non-toxic; inhibition [26]: Active
CO[C@H]1O[C@H](CO)[C@H](O)[C@H](O)[C@H]1O		inactive	inactive	inactive		inactive	inactive	inactive				
